Measurements as given in patent US20220313694A1, “REDUCED CALORIC INTAKE AND ANTICANCER AGENTS FOR THE TREATMENT OF CANCER” (IFOM FONDAZIONE ISTITUTO FIRC DI ONCOLOGIA MOLECOLARE, priority 2021, published 2022).

Tests used:
SUM159 tumour masses = experiment: Ex vivo mammosphere forming assay on SUM159 tumour masses; assay type: cell-based, human
SUM159 xenografts = experiment: Growth of SUM159 xenografts in NOD scid gamma (NSG) mice; settings: agent combined with FMD cycles, compared with FMD or drug alone
[1] = system: SUM159 tumour cells derived from in vivo xenografts; experiment: Limiting dilution assay in recipient NSG mice; design: species or system human
4T1-luc cells = experiment: Growth of 4T1-luc cells in the mammary fat pad of Balb-c mice; assay type: in vivo, mouse; settings: 2DG once a day i.p. combined with 4 cycles of FMD
[2] = system: 4T1 tumour masses (CD44highCD24low subpopulation); experiment: CD44CD24 flow cytometry of 4T1 tumour masses; assay type: in vivo, mouse; settings: 2DG combined with FMD
Experimental: Cells were harvested and washed in PBS 1% BSA and pellets were resuspended in blocking buffer (PBS 10% BSA) and incubated for 30 min at 4° C. light protected. After a wash in PBS 1% BSA, cells were incubated with antibodies solution (200 μl/1×10^6 cells) for 45 min at 4° C. […] SUM159 samples were analysed by flow cytometry with Attune NxT flow cytometer and data were processed by Kaluza analysis software (Beckman coulter, version 2.0). 4T1 samples were analysed by flow cytometry with FACSCalibur (BD) and data were processed by FlowJo software.

4T1 cells = experiment: In vitro sphere forming assay, 4T1 cells under CTR/STS; assay type: cell-based, mouse; settings: STS (0.5 g/l glucose, 1% FBS), 48 h; agent added (8-Br-cAMP; glucose 1 g/l)
[3] = tumour masses from mice treated with drug under AL diet
[4] = tumour masses from mice treated with agent combined with FMD cycles

CN(C)C(=N)N=C(N)N [metformin]
number of ex vivo mammospheres (sphere formation) (SUM159 tumour masses; [3]): reduced tumor growth and sphere formation | tumor progression / anti-tumor activity (SUM159 xenografts): did not show any additive or synergistic antitumor effect when combined with the FMD

O=CC[C@@H](O)[C@H](O)[C@H](O)CO [2DG, 2-Deoxy-D-Glucose]
number of ex vivo mammospheres (sphere formation) (SUM159 tumour masses; [4]): decreasing the number of mammospheres derived by tumor masses, even after a multiple serial propagation | number of ex vivo mammospheres (sphere formation) (SUM159 tumour masses; [3]): did not have any effect under AL conditions | time tumor formation was prevented ([1]; donor mice 2DG + FMD, 1,000 cells dilution level): more than 150 days | mouse survival in the limiting dilution assay ([1]; donor mice treated with 2DG + FMD): potentiated the effect of FMD in increasing mouse survival compared to 2DG and FMD alone | tumor progression (4T1-luc cells): potentiated the effect of FMD both in delaying tumor progression | CSCs (CD44 and CD24 expression) [2]: reducing CSCs | tumor progression / anti-tumor activity (SUM159 xenografts): potentiated the effect of FMD both in delaying tumor progression

O=C(Oc1cccc(F)c1OC(=O)c1cccc(O)c1)c1cccc(O)c1 [WZB117]
number of ex vivo mammospheres (sphere formation) (SUM159 tumour masses; [3]): mimicked the effect of FMD on reducing the number of spheres formation | tumor progression / anti-tumor activity (SUM159 xenografts): did not potentiate the anti-tumor activity of FMD

OC[C@H]1OC(O)[C@H](O)[C@@H](O)[C@@H]1O (stereo partly drawn) [glucose]
number of ex vivo mammospheres (sphere formation) (SUM159 tumour masses; [4]): completely rescued the FMD-dependent reduction of mammospheres | in vitro sphere formation (4T1 cells): reversed the STS effect on 4T1 sphere formation | tumor progression / anti-tumor activity (SUM159 xenografts): partially reversed the FMD effects on tumor progression

Nc1ncnc2c1nc(Br)n2[C@@H]1O[C@@H]2COP(=O)(O)O[C@H]2[C@H]1O [8-Br-cAMP, 8-Bromoadenosine 3′,5′-cyclic mono-phosphate]
in vitro sphere formation (4T1 cells): reversed fasting/STS-dependent spheres reduction
